{"source": "patent US12616204B2", "about": "“Use of cationic porphyrins as selective herbicide” (UNIVERSITE DE LIMOGES, priority 2021, dated 2026)", "key": {"Barley (Hordeum sativum) [1]": {"tested_on": "Barley (Hordeum sativum)", "assay": "In vitro cultivation on Zn-TMPyP-rich medium, barley", "format": "in vivo", "conditions": "3.5 μM Zn-TMPyP-rich medium", "method": "(§1) The sterilization of the seeds is carried out according to the following protocol. Surface sterilization is first performed with 70% (v/v) ethanol for 2 minutes at ambient temperature. The ethanol is removed and the seeds are immersed in 20% (v/v) sodium hypochlorite for 15-20 minutes and then thoroughly rinsed with sterile water. The barley caryopses are left in the water for at least one hour before cultivation.\n(§2) The germination medium for all of the seeds is Gamborg's synthetic medium, also referred to as B5, (Duchefa Biochemie, Haarlem, the Netherlands), supplemented with 2% sucrose (w/v) and solidified with 0.8% agar (Difco, Dallas, USA). The pH is adjusted to 5.8 with 1 M sodium hydroxide before autoclaving. After autoclaving (120° C., 20 minutes, 1 bar) and cooling of the medium in Petri dishes and/or jars, porphyrin is added at the desired concentration. After sterilization, the seeds are deposited on the solidified B5 medium containing or not containing the porphyrin, under a laminar flow hood. The Petri dishes and jars are placed in culture chambers (16 h photoperiod, 22° C., photon flux density ˜100 μmol·m^−2·s^−1 generated by cool daylight lamps (OSRAM Lumilux 24W)). The jars are used for the transfer of the seedlings and allow them to grow more appropriately. […]"}, "[2]": {"tested_on": "Tomato Solanum lycopersicum var Marmande", "assay": "In vitro cultivation on Zn-TMPyP-rich medium, tomato", "format": "in vivo", "conditions": "3.5 μM Zn-TMPyP-rich medium, after 22 days, compared with control", "method": "as §1, §2"}, "[3]": {"tested_on": "Potato (Solanum tuberosum) cultivar: Coquine", "assay": "In vitro cultivation on Zn-TMPyP-treated medium, potato explants", "format": "in vivo", "conditions": "treated medium (3.5 μM Zn-TMPyP) compared to control", "method": "(§3) Explants are propagated in a sterile manner from 1-month old seedlings for potato and two-month old seedlings for grapevines. The potato explants are propagated on a Murashige and Skoog synthetic medium supplemented with 2% sucrose and myo-inositol ((100 mg/L), pH 5.8. The grapevine explants are cultivated on ½ Chee and Pool medium supplemented with 2% sucrose, pH 5.9. The media are solidified with 0.8% Sobigel. Both media are supplied by Duchefa Biochemie, Haarlem, the Netherlands. The media are autoclaved as described above for the B5 medium. The grapevine explants are placed in a culture chamber at 25° C. and those of potato at 23° C., the same photoperiod and light intensity as for the seed germinations."}, "[4]": {"tested_on": "Tobacco (Nicotiana benthamiana)", "assay": "In vitro cultivation on Zn-TMPyP-rich medium, tobacco", "format": "in vivo", "conditions": "3.5 μM Zn-TMPyP-rich medium, one-and-a-half months of cultivation", "method": "as §1\n(§4) The germination medium for all of the seeds is Gamborg's synthetic medium, also referred to as B5, (Duchefa Biochemie, Haarlem, the Netherlands), supplemented with 2% sucrose (w/v) and solidified with 0.8% agar (Difco, Dallas, USA). The pH is adjusted to 5.8 with 1 M sodium hydroxide before autoclaving. After autoclaving (120° C., 20 minutes, 1 bar) and cooling of the medium in Petri dishes and/or jars, porphyrin is added at the desired concentration. After sterilization, the seeds are deposited on the solidified B5 medium containing or not containing the porphyrin, under a laminar flow hood. The Petri dishes and jars are placed in culture chambers (16 h photoperiod, 22° C., photon flux density ˜100 μmol·m^−2·s^−1 generated by cool daylight lamps (OSRAM Lumilux 24W)). The jars are used for the transfer of the seedlings and allow them to grow more appropriately."}, "[5]": {"tested_on": "Grapevine (Vitis vinifera) cultivar: Sauvignon (clone 379)", "assay": "In vitro cultivation on Zn-TMPyP-rich medium, grapevine explants", "format": "in vivo", "conditions": "3.5 μM Zn-TMPyP-rich medium, two months of cultivation", "method": "as §3"}, "[6]": {"tested_on": "Common nettle Urtica dioica", "assay": "In vitro cultivation on Zn-TMPyP-treated medium, nettle", "format": "in vivo", "conditions": "medium with Zn-TMPyP 3.5 μM, after 18 days", "method": "as §1, §4"}, "[7]": {"tested_on": "Arabidopsis thaliana ws ecotype", "assay": "In vitro cultivation on Zn-TMPyP-treated medium, Arabidopsis", "format": "in vivo", "conditions": "medium with Zn-TMPyP 3.5 μM, after 1 month", "method": "as §1, §4"}, "Poppy (Papaver rhoeas) [8]": {"tested_on": "Poppy (Papaver rhoeas)", "assay": "In vitro cultivation on Zn-TMPyP-treated medium, poppy", "format": "in vivo", "conditions": "3.5 μM Zn-TMPyP, after 6 weeks", "method": "as §1, §4"}, "[9]": {"tested_on": "antioxidant machinery (total thiols, catalase, guaiacol peroxidase) of tomato seedlings", "assay": "Total thiols, catalase and guaiacol peroxidase in tomato seedlings cultivated in vitro", "format": "in vivo, Solanum lycopersicum", "conditions": "tomato seedlings cultivated in vitro on 3.5 μM Zn-TMPyP-rich medium, 1 month"}, "fishing worms (maggots)": {"tested_on": "fishing worms (maggots)", "assay": "Non-toxicity to fishing worms (maggots), viability after spraying", "format": "in vivo", "conditions": "for toxicity to fishing worms (maggots): summary statement", "method": "The maggots were placed in Petri dishes under a photoperiod (16 h) or under dark conditions in a phytotron (24° C.) for 24 h. […] The percentage viability was determined after 24 h."}, "[10]": {"tested_on": "adventitious plants (goosefoot, proso millet, rye-grass, dock, black nightshade, dandelion, chickweed)", "assay": "Example 4 greenhouse foliar spraying test, adventitious plants", "format": "in vivo", "conditions": "after 6 weeks", "method": "(§5) Additional tests in a greenhouse were carried out. […] The treatments started at the cotyledon stage. The harvesting was carried out 6 weeks after germination (and 10 weeks for barley)."}, "[11]": {"tested_on": "plants of interest (tomato, barley, wheat, spinach, turnip, corn, onion, sunflower)", "assay": "Example 4 greenhouse foliar spraying test, plants of interest", "format": "in vivo", "conditions": "5 foliar sprayings 48 h apart, regardless of concentration (50, 75, 100 μM), after 6 weeks (10 for barley)", "method": "as §5"}, "[12]": {"tested_on": "Spinach (Spinacia oleracea)", "assay": "Example 4 greenhouse foliar spraying test, spinach", "format": "in vivo", "conditions": "5 foliar sprayings 48 h apart, 50, 75, 100 μM, after 6 weeks", "method": "as §5"}, "[13]": {"tested_on": "tomato seedlings (Solanum lycopersicum)", "conditions": "16-hour photoperiod, Guillaumot et al. 2016; cited from earlier work"}, "Poppy (Papaver rhoeas) [14]": {"tested_on": "Poppy (Papaver rhoeas)", "assay": "Greenhouse foliar spraying test, poppy", "conditions": "foliar spraying 50 μM Zn-TMPyP", "experimental": "(§6) The various seeds are cultivated in a greenhouse in commercial compost (universal compost, Fertiligene). The seeds were sown in the greenhouse under controlled temperature and humidity conditions (the temperature varies between 15° C. and 30° C. depending on the season, and the relative humidity varies from 50 to 70%).\n(§7) Two spot treatments (about 10 sprays each) spaced 48 h apart were carried out one week after germination. The first treatment was carried out when the seedlings were in the cotyledon stage, the second when the seedlings were in the first-leaf stage.\n(§8) The seedlings were monitored every 48 h. The control medium was sprayed with water at the same frequency."}, "Barley (Hordeum sativum) [15]": {"tested_on": "Barley (Hordeum sativum)", "assay": "Greenhouse foliar spraying test, barley", "conditions": "foliar spraying 50 μM Zn-TMPyP, two treatments 48 h apart, after one month and two months", "experimental": "as §6, §7, §8"}, "[16]": {"tested_on": "Tomato Solanum lycopersicum var Marmande", "assay": "Greenhouse foliar spraying test, tomato", "conditions": "foliar spraying 50 μM Zn-TMPyP, two treatments 48 h apart, after one month and two months", "experimental": "as §6, §7, §8"}, "[17]": {"tested_on": "Millet Echinochloa frumentacea", "assay": "Greenhouse foliar spraying test, millet", "conditions": "foliar spraying 50 μM Zn-TMPyP, two treatments 48 h apart, after one month and two months", "experimental": "as §6, §7, §8"}, "[18]": {"assay": "Photostability/photodegradation test in water (Soret band, UV-visible spectrometry)", "conditions": "solution without surfactant, photoperiod 16 h light/8 h dark", "text": "Monitoring the intensity of the Soret band as a function of the irradiation time makes it possible to calculate the percentage of degraded porphyrins."}, "[19]": {"tested_on": "antioxidant enzymes and molecules (total thiols, catalase, guaiacol peroxidase) of tomato seedlings", "assay": "Total thiols, catalase and guaiacol peroxidase in greenhouse tomato seedlings after foliar application", "conditions": "foliar application of 50 μM Zn-TMPyP, two months", "experimental": "Seedlings (roots and aerial parts separated before freezing) are ground in liquid nitrogen. The powder is transferred into an Eppendorf tube and weighed (between 200 and 100 mg per extraction). The extract is acidified with 0.2 N vortexed HCl and centrifuged (13 000 g 10 min 4° C.). 500 μL of the supernatant is neutralized with 400 μL of NaOH (0.2 N) and 50 μL of Na2HPO4. Then, 700 μL of 0.12 M Na2HPO4, 6 mM EDTA and 6 mM DTNB are added to 200 μL of the neutralized solution. After establishing a glutathione range, the total thiols contained in the samples are determined by UV-vis spectrometry at 412 nm and related to the fresh weight.\nSeedlings (roots and aerial parts separated before freezing) are ground in liquid nitrogen. […]\nCatalase activity is quantifiable by measuring the disappearance of H2O2 by disproportionation into H2O and O2. […] The kinetics of the disappearance of H2O2 are measured for 200 seconds every 20 seconds at 240 nm. The activity is calculated using the molar extinction coefficient of H2O2 which is 43.6 mM^−1·cm^−1.\nIts activity is measured by the oxidation of guaiacol in the presence of H2O2. […] The kinetics of the appearance of the oxidized guaiacol are measured for 120 seconds every 10 seconds at 436 nm. The activity is calculated using the molar extinction coefficient of H2O2 which is 25.5 mM^−1·cm^−1."}}, "note": "Entries after “also recorded” stand apart in the source; their conditions may differ.", "data": [{"substance": "zinc tetra(N-methylpyridyl)porphyrin tetrachloride [Zn-TMPyP]", "values": [{"measurement": "appearance of barley leaves", "setting": "Barley (Hordeum sativum) [1]", "result": "yellowing followed by wilting"}, {"measurement": "growth of the barley", "setting": "Barley (Hordeum sativum) [1]; after one month of cultivation", "result": "adversely impacted"}, {"measurement": "development of tomato", "setting": "[2]", "result": "significantly inhibited"}, {"measurement": "growth of potato at the stem and roots", "setting": "[3]", "result": "slight growth retardation"}, {"measurement": "development of tobacco seedlings", "setting": "[4]", "result": "considerable inhibition"}, {"measurement": "development of grapevine seedlings", "setting": "[5]", "result": "considerable inhibition"}, {"measurement": "growth of nettle", "setting": "[6]", "result": "very significant inhibition"}, {"measurement": "growth of Arabidopsis", "setting": "[7]", "result": "very significant inhibition"}, {"measurement": "response of poppy seedlings", "setting": "Poppy (Papaver rhoeas) [8]", "result": "remarkable adverse impact and inhibition"}, {"measurement": "antioxidant machinery (total thiols, catalase, guaiacol peroxidase)", "setting": "[9]", "result": "significantly inhibited"}, {"measurement": "effect on viability of maggots (fishing worms)", "setting": "fishing worms (maggots); spraying of 50 μM Zn-TMPyP, 24 h, in the presence and in the absence of light", "result": "harmlessness"}, {"measurement": "toxicity to fishing worms (maggots)", "setting": "fishing worms (maggots)", "result": "non-toxicity"}, {"measurement": "growth of the adventitious plants", "setting": "[10]; 5 foliar sprayings 48 h apart, C1=50, C2=75, C3=100 μM, dose-dependent or at a specific dose", "result": "drastically adversely impacts"}, {"measurement": "destruction of the adventitious plants", "setting": "[10]; 5 foliar sprayings, certain concentrations (of 50, 75, 100 μM)", "result": "completely destroy"}, {"measurement": "growth of the plants of interest", "setting": "[11]", "result": "grow perfectly"}, {"measurement": "growth of spinach", "setting": "[12]", "result": "slightly affected"}, {"measurement": "tomato seedling growth in vitro", "setting": "[13]", "result": "significantly altered"}, {"measurement": "time to first symptoms after the first treatment", "setting": "Poppy (Papaver rhoeas) [14]; adventitious plants (poppy, millet)", "result": 24, "unit": "h"}, {"measurement": "time until the poppy is destroyed after the first treatment", "setting": "Poppy (Papaver rhoeas) [14]; first 10 sprayings", "result": 48, "unit": "h"}, {"measurement": "herbicidal effect on poppy", "setting": "Poppy (Papaver rhoeas) [14]; two treatments 48 h apart, after one month and two months", "result": "completely dead; also recorded: completely destroyed"}, {"measurement": "growth of barley (plant of interest)", "setting": "Barley (Hordeum sativum) [15]", "result": "grow perfectly"}, {"measurement": "growth of tomato (plant of interest)", "setting": "[16]", "result": "grow perfectly"}, {"measurement": "herbicidal effect on millet", "setting": "[17]", "result": "completely dead"}, {"measurement": "days of photoperiod after which the solution disappears", "setting": "[18]", "result": 29, "unit": "days"}, {"measurement": "antioxidant enzymes and molecules", "setting": "[19]", "result": "remain constant"}, {"measurement": "thiols in the roots", "setting": "[19]", "result": "increase"}]}, {"substance": "tetra(N-methylpyridyl)porphyrin tetrachloride [TMPyP]", "values": [{"measurement": "toxicity to fishing worms (maggots)", "setting": "fishing worms (maggots)", "result": "non-toxicity"}, {"measurement": "tomato seedling growth in vitro", "setting": "[13]", "result": "significantly altered"}]}]}
